Key:
[1] = biological target: Merkel cell polyomavirus (MCPyV) major capsid protein VP1, assembled as virus-like particles (Merkel cell polyomavirus (MCC isolate 339)); assay: crystal structure; filled VLPs (fVLPs), crystals grown in 0.1 M sodium citrate pH 4.6, 30% MPD, 0.2 M NaCl at 20°C; 3.5 Å
[2] = biological target: Merkel cell polyomavirus (MCPyV) major capsid protein VP1, assembled as virus-like particles (Merkel cell polyomavirus (MCC isolate 339)); assay: nonreducing SDS-PAGE; purified VLPs incubated with 10 mM DTT and/or 50 mM EDTA with 2% SDS for 1 h at ambient temperature; capsid to pentamers
[3] = biological target: T1, MCPyV VLPs (VP1/VP2 virus-like particles) (Merkel cell polyomavirus, UniProt B0G0W3); assay: STD-NMR; type: binding; conditions: 10 uM VLP, 1 mM ligand, 150 mM NaCl, 1 mM CaCl2, D2O, 283 K
T1 construct: untagged icosahedral VLPs of 72 VP1 pentamers; VP1-only VLPs behaved the same; with Minor capsid protein VP2

[4] = biological target: T2, HPV-16 VLPs (L1- and L2-containing) (Human papillomavirus 16, UniProt P03101); assay: STD-NMR; type: binding; conditions: 10 uM VLP, 1 mM ligand, D2O, 283 K; buffer printed as PBS and as 150 mM NaCl, 20 mM KH2PO4 pH 7.4
T2 construct: L1/L2 VLPs produced by the MCPyV VLP procedure (293TT cells) without the ion chromatography step; plasmids pshell16 and p16L1L2; with Minor capsid protein L2

Q: Which stoichiometry N [1] does the source give for “Merkel cell polyomavirus (MCPyV) major capsid protein VP1, assembled as virus-like particles (natural protein)” here?
A: Its stoichiometry N is 360.

Q: What about the stoichiometry N [2] of the same compound?
A: Its stoichiometry N is 5.

Q: O=C(O)C1=C[C@H](O)[C@@H](OS(=O)(=O)O)[C@H](O[C@H]2[C@H](O)[C@@H](NS(=O)(=O)O)C(O)O[C@@H]2COS(=O)(=O)O)O1 (some centres unmarked) [HS-dp2, ΔUA2Sα1-4GlcNS6S] was tested. Which STD-NMR ([3]; VP1-only and VP1/VP2 VLPs) did it give?
A: The STD-NMR was “an interaction between MCPyV VLPs and dp2 was unambiguously observed”.

Q: For CO[C@H]1O[C@H](COS(=O)(=O)O)[C@@H](O[C@@H]2O[C@@H](C(=O)O)[C@@H](O[C@H]3O[C@H](COS(=O)(=O)O)[C@@H](O[C@@H]4O[C@H](C(=O)O)[C@@H](O[C@H]5O[C@H](COS(=O)(=O)O)[C@@H](O)[C@H](O)[C@H]5NS(=O)(=O)O)[C@H](O)[C@H]4O)[C@H](OS(=O)(=O)O)[C@H]3NS(=O)(=O)O)[C@H](O)[C@H]2OS(=O)(=O)O)[C@H](O)[C@H]1NS(=O)(=O)O [Arixtra, GlcNS6Sα1-4GlcAα1-4GlcNS3S6Sα1-4IdoA2Sα1-4GlcNS6Sα-OMet], which STD-NMR [4] is on record?
A: The STD-NMR was “the HPV-16 VLP Arixtra binding epitope is indistinguishable from the MCPyV VLP Arixtra epitope”.

Q: And the STD-NMR ([3]; filled (and empty) VLPs)?
A: Its STD-NMR is “we observed STD-NMR signals throughout the full length of the pentasaccharide”.
